Laboratory results reported in patent US7468178B2, “Methods for identifying compounds that modulate vigilance states” (Neurosciences Research Foundation, Inc., priority 1999, dated 2008).

Tests used:
[1] = test system: Drosophila
Protocol: In order to monitor fly behavior, five-day old virgin female Canton-S Drosophila melanogaster were cultured at 25° C., 50-60% humidity, 12 hr:12 hr light:dark cycle, on brewer's yeast, dark corn syrup and agar food, following procedures modified from J. Bennett and D. L. van Dyke, Dros. […] Continuous, high-resolution measurement of fly behavior was achieved using an ultrasound activity monitoring system shown in FIG. 1A. Briefly, a 44 kHz standing wave was passed across an independent enclosure containing a single fly. An integrated circuit sampled a portion of each wave as a function of the transmit signal and compared it to the output from the receive signal for the same time-window. When the fly moved its mass within the field, it perturbed the standing wave and the resulting difference was counted as a movement. The output was sampled by a PC at 200 Hz, the data were summed in 2-sec bins and stored for later processing. This system detects very small movements in Drosophila's behavioral repertoire, including fine movements of the head, wings, and limbs. To monitor rest-activity patterns in large numbers of flies, an infrared Drosophila Activity Monitoring System was used (Trikinetics; described in M. Hamblen et al., J. Neurogen. 3:249 (1986)). To validate the system, flies were visually monitored for a total of 17.75 h (n=7). The number of times the fly crossed the infrared beam was counted in 5-minute bins. […] Drugs (caffeine or hydroxyzine) dissolved in food were continuously available to flies beginning in the final hour of the light period.

[2] = test system: Drosophila; experiment: Responsiveness to arousing stimuli (arousal threshold) in flies; format: in vivo, Drosophila melanogaster; conditions: flies given drug in food
Protocol: In order to determine whether periods of rest are associated with increased arousal thresholds, flies were subjected to vibratory stimuli of increasing intensity (0.05 g, 0.1 g, and 6 g). In these experiments, flies were placed in glass tubes (65 mm in length, 5 mm I.D.) maintained on a hard plastic platform above a Grass speaker. The output of the speaker was controlled via a Beckman signal generator and the resulting vibration of the platform was measured with an accelerometer. Each fly received a stimulus each hour (total of 8 stimuli) of constant intensity. The behavioral state at the time of stimulus delivery and the ensuing response were videotaped and scored off-line.

Structure (SMILES)	motor activity ([1]; flies given drug in food from final hour of light period)	amount of rest during the dark period ([1]; flies given drug in food from final hour of light period, FIG. 3C, n=36/dose, p<0.0001)	responsiveness to arousing stimuli [2]	rest during the first hour of the dark period ([1]; flies given drug in food from final hour of light period, FIG. 3D, n=40/dose)	latency to first dark period rest ([1]; flies given drug in food from final hour of light period, FIG. 3E, n=40/dose)	total amount of activity during the light period ([1]; in vivo)
Cn1c(=O)c2c(ncn2C)n(C)c1=O [caffeine]	increased	decreased in a dose-dependent fashion	–	–	–	–
OCCOCCN1CCN(C(c2ccccc2)c2ccc(Cl)cc2)CC1 (stereo not drawn) [hydroxyzine]	–	–	preserved	increased in a dose-dependent manner	decreased	unchanged
